Legend:
Assay in all cases: relative viability (nuclei count vs DMSO), 5 days (fraction); higher = more cells survive
Linifanib + Palbociclib = compound: Cc1ccc(F)c(NC(=O)Nc2ccc(-c3cccc4[nH]nc(N)c34)cc2)c1 [Linifanib] + CC(=O)c1c(C)c2cnc(Nc3ccc(N4CCNCC4)cn3)nc2n(C2CCCC2)c1=O [Palbociclib] (partner 0.5 µM)
Procedure, shortened: (§1)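 Relative viability was taken as the ratio of nuclei in treated wells to nuclei in vehicle wells. Lung cancer cell lines in 1536-well plates received compounds by pin tool one day after seeding, either one drug alone or a fixed anchor-drug dose plus five library-drug doses (not always all listed) in √10 steps. Nuclei were counted on 4× images after 5 days of treatment, and values are medians of duplicate plates.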

Linifanib + Luminespib = compound: Cc1ccc(F)c(NC(=O)Nc2ccc(-c3cccc4[nH]nc(N)c34)cc2)c1 [Linifanib] + CCNC(=O)c1noc(-c2cc(C(C)C)c(O)cc2O)c1-c1ccc(CN2CCOCC2)cc1 [Luminespib] (partner 0.01 µM)
Procedure, shortened: as §1

Linifanib + Pictilisib = compound: Cc1ccc(F)c(NC(=O)Nc2ccc(-c3cccc4[nH]nc(N)c34)cc2)c1 [Linifanib] + CS(=O)(=O)N1CCN(Cc2cc3nc(-c4cccc5[nH]ncc45)nc(N4CCOCC4)c3s2)CC1 [Pictilisib] (partner 1 µM)
Procedure, shortened: as §1

Linifanib + Dasatinib = compound: Cc1ccc(F)c(NC(=O)Nc2ccc(-c3cccc4[nH]nc(N)c34)cc2)c1 [Linifanib] + Cc1nc(Nc2ncc(C(=O)Nc3c(C)cccc3Cl)s2)cc(N2CCN(CCO)CC2)n1 [Dasatinib] (partner 0.075 µM)
Procedure, shortened: as §1

Linifanib + Phenformin = compound: Cc1ccc(F)c(NC(=O)Nc2ccc(-c3cccc4[nH]nc(N)c34)cc2)c1 [Linifanib] + N=C(N)NC(=N)NCCc1ccccc1 [Phenformin] (partner 250 µM)
Procedure, shortened: as §1

Linifanib + Vorinostat = compound: Cc1ccc(F)c(NC(=O)Nc2ccc(-c3cccc4[nH]nc(N)c34)cc2)c1 [Linifanib] + O=C(CCCCCCC(=O)Nc1ccccc1)NO [Vorinostat] (partner 1 µM)
Procedure, shortened: as §1

Cell Line	relative viability (Linifanib + Palbociclib; first compound 0.03162 µM)	relative viability (Linifanib + Palbociclib; first compound 0.1 µM)	relative viability (Linifanib + Palbociclib; first compound 0.3162 µM)	relative viability (Linifanib + Luminespib; first compound 0.03162 µM)	relative viability (Linifanib + Luminespib; first compound 0.1 µM)	relative viability (Linifanib + Luminespib; first compound 0.3162 µM)	relative viability (Linifanib + Pictilisib; first compound 0.03162 µM)	relative viability (Linifanib + Pictilisib; first compound 0.1 µM)	relative viability (Linifanib + Pictilisib; first compound 0.3162 µM)	relative viability (Linifanib + Dasatinib; first compound 0.03162 µM)	relative viability (Linifanib + Dasatinib; first compound 0.1 µM)	relative viability (Linifanib + Dasatinib; first compound 0.3162 µM)	relative viability (Linifanib + Phenformin; first compound 0.03162 µM)	relative viability (Linifanib + Phenformin; first compound 0.1 µM)	relative viability (Linifanib + Phenformin; first compound 0.3162 µM)	relative viability (Linifanib + Vorinostat; first compound 0.03162 µM)	relative viability (Linifanib + Vorinostat; first compound 0.1 µM)	relative viability (Linifanib + Vorinostat; first compound 0.3162 µM)
LOU-NH91	0.551	0.517	0.51	0.394	0.324	0.319	0.498	0.523	0.557	0.61	0.612	0.558	0.734	0.806	0.732	0.969	0.975	0.943
NCI-H1944	0.334	0.353	0.35	0.67	0.727	0.733	0.368	0.378	0.341	0.204	0.215	0.216	0.212	0.205	0.2	0.73	0.599	0.657
NCI-H1993	0.688	0.826	0.725	0.864	0.933	1.03	0.838	0.77	0.963	0.683	0.551	0.681	0.44	0.514	0.504	1.08	0.958	0.825
HCC-15	0.723	0.741	0.842	0.387	0.278	0.3	0.833	0.804	0.71	0.635	0.709	0.725	0.501	0.567	0.479	0.796	0.838	0.792
HCC-827	0.491	0.544	0.46	0.549	0.669	0.622	0.898	0.96	0.933	0.272	0.32	0.268	0.432	0.453	0.382	0.792	0.814	0.802
UMC-11	0.342	0.309	0.335	0.958	1.1	1.08	0.859	0.865	0.819	0.42	0.491	0.466	0.334	0.327	0.326	0.334	0.315	0.354
NCI-H727	0.596	0.67	0.651	0.312	0.292	0.358	0.3	0.431	0.385	0.449	0.344	0.521	0.609	0.574	0.609	1.29	1.18	1.09
NCI-H2009	0.247	0.263	0.25	1.03	1.05	0.965	0.873	0.973	0.835	0.323	0.358	0.304	0.483	0.493	0.459	0.695	0.781	0.743
NCI-H2405	0.56	0.532	0.513	0.626	0.933	0.741	0.499	0.606	0.477	0.212	0.199	0.219	0.396	0.4	0.382	0.988	1.05	0.951
NCI-H23	0.486	0.57	0.487	0.238	0.217	0.225	0.542	0.524	0.523	0.736	0.928	0.84	0.773	0.838	0.749	0.771	0.688	0.566
NCI-H2347	0.462	0.441	0.404	0.479	0.408	0.348	0.863	0.987	0.817	0.356	0.399	0.284	0.517	0.864	0.298	0.73	0.773	0.665
NCI-H2170	0.385	0.421	0.402	0.686	0.844	0.741	0.297	0.332	0.304	0.662	0.611	0.579	0.426	0.411	0.378	0.806	0.814	0.823
PC-3 [JPC-3]	0.615	0.537	0.487	0.744	0.731	0.579	0.743	0.786	0.687	1.04	1.01	0.972	0.491	0.474	0.442	0.671	0.747	0.775
NCI-H1355	0.398	0.411	0.389	0.777	0.672	0.648	0.463	0.401	0.433	0.76	0.859	0.697	0.449	0.496	0.425	0.647	0.68	0.682
NCI-H3122	0.19	0.196	0.179	0.0911	0.0897	0.0958	0.598	0.648	0.577	0.908	0.908	0.877	0.381	0.399	0.362	1.12	1.09	0.927
COR-L 105	0.424	0.405	0.401	0.807	0.889	0.556	0.422	0.437	0.388	0.416	0.361	0.322	0.577	0.548	0.465	0.86	0.809	0.796
NCI-H2085	0.485	0.474	0.463	0.4	0.481	0.384	0.426	0.711	0.484	0.252	0.239	0.268	0.878	0.786	0.712	0.854	0.832	0.792

Cell Line	relative viability (Linifanib + Palbociclib; first compound 0.03162 µM)	relative viability (Linifanib + Palbociclib; first compound 0.1 µM)	relative viability (Linifanib + Palbociclib; first compound 0.3162 µM)	relative viability (Linifanib + Luminespib; first compound 0.03162 µM)	relative viability (Linifanib + Luminespib; first compound 0.1 µM)	relative viability (Linifanib + Luminespib; first compound 0.3162 µM)	relative viability (Linifanib + Pictilisib; first compound 0.03162 µM)	relative viability (Linifanib + Pictilisib; first compound 0.1 µM)	relative viability (Linifanib + Pictilisib; first compound 0.3162 µM)	relative viability (Linifanib + Dasatinib; first compound 0.03162 µM)	relative viability (Linifanib + Dasatinib; first compound 0.1 µM)	relative viability (Linifanib + Dasatinib; first compound 0.3162 µM)	relative viability (Linifanib + Phenformin; first compound 0.03162 µM)	relative viability (Linifanib + Phenformin; first compound 0.1 µM)	relative viability (Linifanib + Phenformin; first compound 0.3162 µM)	relative viability (Linifanib + Vorinostat; first compound 0.03162 µM)	relative viability (Linifanib + Vorinostat; first compound 0.1 µM)	relative viability (Linifanib + Vorinostat; first compound 0.3162 µM)
ChaGo-K-1	0.984	0.881	0.916	0.636	0.777	0.563	0.697	0.783	0.741	0.721	0.727	0.558	0.488	0.581	0.478	0.767	0.807	0.775
NCI-H460	0.133	0.187	0.152	0.0304	0.0311	0.0301	0.397	0.448	0.317	0.577	0.6	0.508	0.546	0.542	0.489	0.713	0.877	0.596
NCI-H650	0.37	0.308	0.376	0.816	0.611	0.71	0.777	0.905	0.871	0.461	0.451	0.444	0.45	0.449	0.439	0.513	0.409	0.358
NCI-H322M	0.488	0.487	0.441	0.88	0.863	0.882	0.513	0.491	0.557	0.253	0.256	0.216	0.756	0.819	0.737	0.848	0.914	0.876
A-427	0.54	0.548	0.507	0.912	1.09	0.814	0.796	0.724	0.711	0.715	0.835	0.798	0.346	0.428	0.294	0.884	0.86	0.918
BEN	0.471	0.521	0.438	0.276	0.49	0.233	0.516	0.606	0.581	0.318	0.34	0.316	0.252	0.245	0.243	0.622	0.558	0.667
NCI-H2087	0.219	0.285	0.269	0.175	0.193	0.171	0.977	0.989	0.825	1.12	1.22	0.787	0.431	0.51	0.431	0.854	0.695	0.598
PC-14	0.444	0.584	0.463	0.201	0.197	0.147	0.617	0.823	0.682	0.259	0.262	0.266	0.557	0.59	0.491	0.784	0.83	0.768
COR-L23	0.31	0.298	0.273	0.673	0.892	0.705	0.754	0.717	0.686	0.532	0.647	0.418	0.464	0.431	0.399	0.462	0.402	0.384
NCI-H1650	0.35	0.399	0.351	0.2	0.188	0.205	0.661	0.671	0.5	0.327	0.348	0.252	0.428	0.571	0.412	0.528	0.602	0.655
SK-LU-1	0.359	0.449	0.366	0.195	0.181	0.227	0.529	0.602	0.542	0.205	0.196	0.193	0.528	0.622	0.58	0.74	0.749	0.828
LK-2	0.564	1.01	0.565	0.189	0.201	0.232	0.495	0.537	0.489	0.308	0.349	0.403	0.447	0.691	0.4	0.286	0.529	0.283
NCI-H2023	0.357	0.415	0.345	0.7	0.925	0.757	0.221	0.297	0.263	0.543	0.681	0.565	0.398	0.479	0.392	0.655	0.807	0.612
LC-2-ad	0.499	0.471	0.421	0.968	0.958	1.05	0.379	0.57	0.437	0.618	0.871	0.489	0.645	0.609	0.505	0.83	0.7	0.73
LU99A	0.457	0.464	0.408	0.205	0.246	0.268	0.317	0.349	0.325	0.547	0.66	0.488	0.878	0.892	0.793	0.497	0.43	0.505
HARA	0.274	0.244	0.303	1.12	0.651	0.707	0.337	0.52	0.3	0.234	0.335	0.285	0.446	0.539	0.476	0.598	0.479	0.579
NCI-H838	0.22	0.223	0.23	0.373	0.285	0.267	0.464	0.466	0.458	0.286	0.282	0.27	0.79	0.642	0.542	0.724	0.711	0.686

From the supplement of paper PMC10307832
